Assay results taken from PubChem BioAssay (NCI).
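Assay format: 96-well plates, 48-hour exposure. At the TGI there is no net growth.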

What was measured:
Test in all cases: inhibition of tumour cell growth, NCI panel, 48 h
HT29 colon = test system: HT29 colon
786-0 renal = test system: 786-0 renal
RPMI-8226 leukemia = test system: RPMI-8226 leukemia
SF-268 CNS = test system: SF-268 CNS
MALME-3M melanoma = test system: MALME-3M melanoma
NCI/ADR-RES ovarian = test system: NCI/ADR-RES ovarian
SN12C renal = test system: SN12C renal
EKVX NSCLC = test system: EKVX NSCLC
HL-60(TB) leukemia = test system: HL-60(TB) leukemia
MDA-MB-435 = test system: MDA-MB-435
IGROV1 ovarian = test system: IGROV1 ovarian
OVCAR-3 ovarian = test system: OVCAR-3 ovarian
MDA-MB-231 breast = test system: MDA-MB-231 breast
BT-549 breast = test system: BT-549 breast
UACC-257 melanoma = test system: UACC-257 melanoma
CAKI-1 renal = test system: CAKI-1 renal
CCRF-CEM leukemia = test system: CCRF-CEM leukemia
HCC-2998 colon = test system: HCC-2998 colon
COLO 205 colon = test system: COLO 205 colon
KM12 colon = test system: KM12 colon
NCI-H522 lung = test system: NCI-H522 lung
SR leukemia = test system: SR leukemia
HCT-116 colon = test system: HCT-116 colon
UO-31 renal = test system: UO-31 renal
SK-MEL-2 melanoma = test system: SK-MEL-2 melanoma
T-47D breast = test system: T-47D breast
K-562 leukemia = test system: K-562 leukemia
SNB-19 CNS = test system: SNB-19 CNS
NCI-H460 lung = test system: NCI-H460 lung
LOX IMVI melanoma = test system: LOX IMVI melanoma
ACHN renal = test system: ACHN renal
UACC-62 melanoma = test system: UACC-62 melanoma
SK-MEL-5 melanoma = test system: SK-MEL-5 melanoma
SW-620 colon = test system: SW-620 colon
DU-145 prostate = test system: DU-145 prostate
M14 melanoma = test system: M14 melanoma
HOP-62 NSCLC = test system: HOP-62 NSCLC
OVCAR-5 ovarian = test system: OVCAR-5 ovarian
A549 NSCLC = test system: A549 NSCLC
OVCAR-8 ovarian = test system: OVCAR-8 ovarian
PC-3 prostate = test system: PC-3 prostate
HS 578T breast = test system: HS 578T breast
NCI-H226 lung = test system: NCI-H226 lung
U251 CNS = test system: U251 CNS
SF-539 CNS = test system: SF-539 CNS
MCF7 breast = test system: MCF7 breast
SK-MEL-28 melanoma = test system: SK-MEL-28 melanoma
A498 renal = test system: A498 renal
SF-295 CNS = test system: SF-295 CNS
HCT-15 colon = test system: HCT-15 colon
NCI-H23 lung = test system: NCI-H23 lung
TK-10 renal = test system: TK-10 renal

Compound N/N=C(/N)SCCCCCCCCCCS/C(N)=N/N has a TGI (HT29 colon) of 27.7 µM, a TGI (786-0 renal) greater than 100 µM and a TGI (RPMI-8226 leukemia) of 70.8 µM. It also gave a TGI (SF-268 CNS) greater than 100 µM, a TGI (MALME-3M melanoma) of 49.4 µM and a TGI (NCI/ADR-RES ovarian) of 58.2 µM. For the same compound, the TGI (SN12C renal) was greater than 100 µM, the TGI (EKVX NSCLC) was greater than 100 µM and the TGI (HL-60(TB) leukemia) was 39.4 µM. For the same compound, the TGI (MDA-MB-435) was greater than 100 µM, the TGI (IGROV1 ovarian) was 69.9 µM and the TGI (OVCAR-3 ovarian) was 91.1 µM. It also gave a TGI (MDA-MB-231 breast) of 85.2 µM, a TGI (BT-549 breast) of 68.7 µM and a TGI (UACC-257 melanoma) greater than 100 µM. It also gave a TGI (CAKI-1 renal) greater than 100 µM, a TGI (CCRF-CEM leukemia) greater than 100 µM and a TGI (HCC-2998 colon) of 59.6 µM. It also gave a TGI (COLO 205 colon) of 27.7 µM, a TGI (KM12 colon) of 67.3 µM and a TGI (NCI-H522 lung) of 65.6 µM. For the same compound, the TGI (SR leukemia) was 27.4 µM, the TGI (HCT-116 colon) was greater than 100 µM and the TGI (UO-31 renal) was 78.9 µM. The TGI (SK-MEL-2 melanoma) was 52.8 µM, the TGI (T-47D breast) was 35.4 µM and the TGI (K-562 leukemia) was 32.3 µM. For the same compound, the TGI (SNB-19 CNS) was greater than 100 µM, the TGI (NCI-H460 lung) was 32.7 µM and the TGI (LOX IMVI melanoma) was 23.7 µM. For the same compound, the TGI (ACHN renal) was 67.4 µM, the TGI (UACC-62 melanoma) was 47.1 µM and the TGI (SK-MEL-5 melanoma) was 49 µM. The TGI (SW-620 colon) was 36.6 µM, the TGI (DU-145 prostate) was greater than 100 µM and the TGI (M14 melanoma) was greater than 100 µM. The TGI (HOP-62 NSCLC) was greater than 100 µM, the TGI (OVCAR-5 ovarian) was greater than 100 µM and the TGI (A549 NSCLC) was 50.3 µM. For the same compound, the TGI (OVCAR-8 ovarian) was 39.3 µM, the TGI (PC-3 prostate) was greater than 100 µM and the TGI (HS 578T breast) was greater than 100 µM. For the same compound, the TGI (NCI-H226 lung) was 83.1 µM, the TGI (U251 CNS) was 51.4 µM and the TGI (SF-539 CNS) was greater than 100 µM. The TGI (MCF7 breast) was 64.4 µM, the TGI (SK-MEL-28 melanoma) was greater than 100 µM and the TGI (A498 renal) was 43.8 µM. The TGI (SF-295 CNS) was 60.9 µM, the TGI (HCT-15 colon) was 27.5 µM and the TGI (NCI-H23 lung) was greater than 100 µM. For the same compound, the TGI (TK-10 renal) was greater than 100 µM.
